Measured values as given in US20240173435A1, “GENE DELIVERY FOR PREVENTION AND TREATMENT OF BALDNESS” (NEW JERSEY INSTITUTE OF TECHNOLOGY, priority 2022, published 2024).

Assays:
[1] = Ionizable cationic lipid library screening, in vitro delivery of luciferase mRNA (mLuc); assay type: cell-based; details: 18*8 library, lipid:DOPE:cholesterol:DMG-PEG 50:10:38.5:1.5
Excerpt: An ionizable cationic lipid is generally composed of three parts: (1) hydrophilic headgroups containing one or multiple ionizable amines for condensing negatively charged mRNA; (2) hydrophobic hydrocarbon chains capable of promoting self-assembly and phospholipid membrane fusion; (3) degradable ester linkers connecting the headgroups with hydrocarbon chains to potentially lower systemic cytotoxicity (FIG. 8b). A new library of ionizable cationic lipids is designed, where the ionizable amine headgroups originated from different amino alcohols and the hydrocarbon lipid chains were derived from commercially available lipid acids. Through CALB enzyme-assisted reaction, the hydroxyl groups were reacted with carboxylic acids via one-step high-efficiency esterification (FIG. 8a) and an 18*8 library of lipid-like materials was synthesized by varying amino alcohols and lipid acids (ACS Nano, 16 (11) 18936-18950). Preliminarily, these lipid-like materials with DOPE, cholesterol, and DMG-PEG were fabricated at a molar ratio of 50:10:38.5:1.5, which was the most widely used formulation to form LNPs and delivered luciferase encoded mRNA (mLuc) in vitro to generate a luciferase expression heat map of lipid-like materials.

Androgen Receptor gene = assay: Knockout percentage by Sanger sequencing and ICE analysis of GFP-positive sorted cells; assay type: cell-based, human; details: GFP-positive sorted HEK 293T cells, ICE analysis, n=5
Method: Cas9 mRNA was purchased from Tri-Link Biotechnologies. Guide RNAs, which target the 1st coding exon in both human and mouse AR genes, were designed so that any frameshift mutation would result in early termination of translation. All gRNAs were obtained from Synthego with “end-modified” synthesis where the first and last three bases of these gRNA were synthesized using 2′-O-Methyl-nucleosides and joined via 3′ phosphorothioate bonds.
The in vitro transfection efficacy was evaluated in the HEK 293 cell line by delivering plasmid PX458 integrated with GFP, Cas9 and gRNA sequence, utilizing nanoparticles. Briefly, 1×10^5 HEK 293 cells were seeded into each well of 24-well plate with 0.5 mL complete culture medium and incubated at 37° C. overnight to allow cell attachment. Then the LNPs were seeded at 24 h. The transfected GFP positive cells were observed under All-in-One Fluorescence Microscope (BZ-X710, Keyence, Japan) at predetermined time points with brightfield, fluorescent and merged channels using 10×PanFluor lens (Nikon, Japan). […] The cell pellets were resuspended in 0.5 mL PBS for flow cytometric analysis using a BD LSR II flow cytometer (BD Biosciences, San Jose, CA) and the data were analyzed using FACSDiva software (BD Biosciences, San Jose, CA). […]

Row | luciferase expression rank in lipid library screen [1] | Compound | knockout (percentage of transfected cells showing insertion or deletion) (Androgen Receptor gene)
1 | top-performing | CCCCC/C=C/C/C=C/CCCCCCCC(=O)OCCN1CCN(CCOC(=O)CCCCCCC/C=C/C/C=C/CCCCC)CC1 [AA3-DLin] | –
2 | – | GAGCGTGCGCGAAGCGATCC (guide GAGCGUGCGCGAAGCGAUCC; listed as RNA, chemistry not fully specified) [sgRNA2, PAM AGG, strand +] | ~51%
3 | – | TGATCCAGAACCCGGGCCCC (guide UGAUCCAGAACCCGGGCCCC; listed as RNA, chemistry not fully specified) [sgRNA1, PAM AGG, strand +] | ~76%
